# Test results reported in US12448382B2, “Heterocyclic compounds for mediating tyrosine kinase 2 activity” (GUANGZHOU INNOCARE PHARMA TECH CO., LTD., priority 2019, dated 2025).
# Columns and labels:
# [1] = tested on: IL-12-induced IFN-γ secretion in NK92 cells; test: Inhibition of IL-12-induced IFN-γ Secretion in NK92 Cells (ELISA); format: cell-based, human; conditions: Homo sapiens, 24 hours incubation, 8 concentration points, read-out: IC50 (NK92_IL12/IFNγ)
# Procedure, shortened: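 NK92 cells (100,000/well, IL-2-free medium) rested overnight, then treated with compound plus IL-12 for 24 h at 37 °C. Secreted IFN-γ measured in supernatant by ELISA. Inhibition normalized to unstimulated and IL-12/0.2% DMSO controls; IC50 fitted from 8 concentrations.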
# [2] = molecular target: T1, human recombinant TYK2 protein (Homo sapiens, UniProt P29597); test: TYK2 Inhibition Assay (HTRF kinase assay); format: biochemical; conditions: human recombinant TYK2, 11.25 μM ATP substrate solution
# T1 construct: purchased Carna Biosciences 08-147
# T1 sequence (P29597 871-1187 limits assumed): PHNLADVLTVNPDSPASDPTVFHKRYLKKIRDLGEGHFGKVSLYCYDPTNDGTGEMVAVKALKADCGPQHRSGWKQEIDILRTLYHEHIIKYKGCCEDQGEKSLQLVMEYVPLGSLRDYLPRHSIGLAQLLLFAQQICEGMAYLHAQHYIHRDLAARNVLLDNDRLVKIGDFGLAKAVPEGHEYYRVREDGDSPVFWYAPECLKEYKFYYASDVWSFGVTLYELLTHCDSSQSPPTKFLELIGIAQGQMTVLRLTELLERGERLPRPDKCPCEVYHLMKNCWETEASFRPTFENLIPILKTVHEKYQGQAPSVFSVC
# Procedure, shortened: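 Recombinant human TYK2 was pre-incubated 15 min at room temperature with compound, then reacted for 40 min with biotinylated tyrosine-kinase substrate and ATP (substrate solution 11.25 μM ATP, 0.5 μM substrate; 5 mM MgCl2, 0.01% Brij35). Phosphorylation was read by HTRF 665/620 ratio, normalised to no-enzyme and no-compound controls, and IC50 was fitted from 8 4-fold dilutions.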
# [3] = molecular target: T2, human recombinant JAK2 protein (Homo sapiens, UniProt O60674); test: JAK2 Inhibition Assay (HTRF kinase assay); format: biochemical; conditions: human recombinant JAK2, 2.5 μM ATP substrate solution
# T2 construct: purchased Carna Biosciences 08-045
# T2 sequence (O60674 826-1132 limits assumed): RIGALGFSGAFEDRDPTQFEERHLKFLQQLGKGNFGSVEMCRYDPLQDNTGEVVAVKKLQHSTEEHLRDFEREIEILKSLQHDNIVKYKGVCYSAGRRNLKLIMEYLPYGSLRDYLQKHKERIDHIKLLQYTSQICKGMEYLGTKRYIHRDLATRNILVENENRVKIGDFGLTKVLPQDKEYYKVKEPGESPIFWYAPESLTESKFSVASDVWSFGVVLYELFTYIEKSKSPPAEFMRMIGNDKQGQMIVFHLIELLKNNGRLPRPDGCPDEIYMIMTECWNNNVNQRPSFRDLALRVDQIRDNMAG
# Procedure, shortened: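 Recombinant human JAK2 was preincubated 15 min at room temperature with compound in buffer containing 5 mM MgCl2, 1 mM DTT and 0.01% Brij35. Substrate solution (2.5 μM ATP, 0.25 μM biotinylated TK substrate) was then added for 30 min. Phosphorylation was detected by HTRF (665/620 nm ratio; no-enzyme = 100% inhibition), and IC50 was fitted from an 8-point, 4-fold series.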
Compound,IC50 [1],IC50 [2],IC50 [3]
"Cc1cnc(Nc2cnn(C)c2)nc1N1C[C@@]2(C)CN(S(C)(=O)=O)C[C@@]2(C)C1 [Compound 55, 4-((3aR,6aS)-3a,6a-dimethyl-5-(methylsulfonyl)hexahydropyrrolo[3,4-c]pyrrol-2(1H)-yl)-5-methyl-N-(1-methyl-1H-pyrazol-4-yl)pyrimidin-2-amine]",413 nM,1.7 nM,3.7 nM
"Cc1cnc(Nc2cnn(C)c2)nc1N1C[C@]2(C)CN(C(=O)[C@@H]3CC3(F)F)C[C@]2(C)C1 [Compound 56, ((S)-2,2-difluorocyclopropyl)((3aR,6aS)-3a,6a-dimethyl-5-(5-methyl-2-((1-methyl-1H-pyrazol-4-yl)amino)pyrimidin-4-yl)hexahydropyrrolo[3,4-c]pyrrol-2(1H)-yl)methanone]",505 nM,1.7 nM,2.5 nM
"CN1CCN(C(=O)c2ccc(Nc3ncc(Cl)c(N4C[C@]5(C)CN(C(=O)C6CC6)C[C@]5(C)C4)n3)cn2)CC1 [Compound 59, ((3aR,6aS)-5-(5-chloro-2-((6-(4-rnethylpiperazine-1-carbonyl)pyridin-3-yl)amino)pyrimidin-4-yl)-3a,6a-dimethylhexahydropyrrolo[3,4-c]pyrrol-2(1H)-yl)(cyclopropyl)methanone]",2390 nM,5 nM,5.1 nM
"Cc1cnc(Nc2cnn(C)c2)nc1N1C[C@]2(C)CN(C(=O)CC(F)(F)F)C[C@]2(C)C1 [Compound 60, 1-((3aR.,6aS)-3a,6a-dimethyl-5-(5-methyl-2-((1-methyl-1H-pyrazol-4-yl)amino)pyrimidin-4-yl)hexahydropyrrolo[3,4-c]pyrrol-2(1H)-yl)-3,3,3-trifluoropropan-1-one]",1380 nM,2.2 nM,5.9 nM
Cn1cc(Nc2ncc(Cl)c(N3C[C@]4(C)CN(c5ccno5)C[C@]4(C)C3)n2)cn1 [Compound 66],66 nM,0.2 nM,0.3 nM
"Cc1cc(CN2C[C@@]3(C)CN(c4nc(Nc5cnn(C)c5)ncc4Cl)C[C@@]3(C)C2)on1 [Compound 78, 5-chloro-4-((3aR,6aS)-3a,6a-dimethyl-5-((3-methylisoxazol-5-yl)methyl)hexahydropyrrolo[3,4-c]pyrrol-2(1H)-yl)-N-(1-methyl-1H-pyrazol-4-yl)pyrimidin-2-amine]",2760 nM,4.2 nM,7.6 nM
"Cn1cc(Nc2ncc(Cl)c(N3C[C@]4(C)CN(Cc5cn[nH]c5)C[C@]4(C)C3)n2)cn1 [Compound 79, 4-((3aR,6aS)-5-((1H-pyrazol-4-yl)methyl)-3a,6a-dimethylhexahydropyrrolo[3,4-c]pyrrol-2(1H)-yl)-5-chloro-N-(1-methyl-1H-pyrazol-4-yl)pyrimidin-2-amine]",3970 nM,51 nM,40 nM
"Cc1ncc(CN2C[C@@]3(C)CN(c4nc(Nc5cnn(C)c5)ncc4Cl)C[C@@]3(C)C2)o1 [Compound 80, 5-chloro-4-((3aR,6aS)-3a,6a-dimethyl-5-((2-methyloxazol-5-yl)methyl)hexahydropyrrolo[3,4-c]pyrrol-2(1H)-yl)-N-(1-methyl-1H-pyrazol-4-yl)pyrimidin-2-amine]",4090 nM,19 nM,16 nM
"Cn1cc(Nc2ncc(Cl)c(N3C[C@]4(C)CN(Cc5cc[nH]n5)C[C@]4(C)C3)n2)cn1 [Compound 81, 4-((3aR,6aS)-5-((1H-pyrazol-3-yl)methyl)-3a,6a-dimethylhexahydropyrrolo[3,4-c]pyrrol-2(1H)-yl)-5-chloro-N-(1-methyl-1H-pyrazol-4-yl)pyrimidin-2-amine]",3970 nM,50 nM,16 nM

# More lines, now with the values ahead:
IC50 [1],IC50 [2],IC50 [3],Compound
2870 nM,16 nM,14 nM,"Cc1noc(CN2C[C@@]3(C)CN(c4nc(Nc5cnn(C)c5)ncc4Cl)C[C@@]3(C)C2)n1 [Compound 82, 5-chloro-4-((3aR,6aS)-3a,6a-dimethyl-5-((3-methyl-1,2,4-oxadiazol-5-yl)methyl)hexahydropyrrolo[3,4-c]pyrrol-2(1H)-yl)-N-(1-methyl-1H-pyrazol-4-yl)pyrimidin-2-amine]"
4550 nM,7.4 nM,13 nM,"Cc1nnc(N2C[C@@]3(C)CN(c4nc(Nc5cnn(C)c5)ncc4Cl)C[C@@]3(C)C2)o1 [Compound 83, 5-chloro-4-((3aR,6aS)-3a,6a-dimethyl-5-(5-methyl-1,3,4-oxadiazol-2-yl)hexahydropyrrolo[3,4-c]pyrrol-2(1H)-yl)-N-(1-methyl-1H-pyrazol-4-yl)pyrimidin-2-amine]"
8750 nM,186 nM,477 nM,"Cn1cc(Nc2ncc(Cl)c(N3C[C@]4(C)CN(CC5CC5)C[C@]4(C)C3)n2)cn1 [Compound 84, 5-chloro-4-((3aR,6aS)-5-(cyyclopropylmethyl)-3a,6a-dimethylhexahydropyrrolo[3,4-c]pyrrol-2(1H)-yl)-N-(1-methyl-1H-pyrazol-4-yl)pyrimidin-2-amine]"
5350 nM,2.4 nM,1.7 nM,"Cn1cc(Nc2ncc(Cl)c(N3C[C@]4(C)CN(CC#N)C[C@]4(C)C3)n2)cn1 [Compound 85, 2-((3aR,6aS)-5-(5-chloro-2-((1-methyl-1H-pyrazol-4-yl)amino)pyrimidin-4-yl)-3a,6a-dimethylhexahydropyrrolo[3,4-c]pyrrol-2(1H)-yl)acetonitrile]"
99 nM,0.3 nM,1.7 nM,"Cn1cc(Nc2ncc(Cl)c(N3C[C@@H]4CN(C(=O)C5CC5)C[C@]4(C)C3)n2)cn1 [Compound 86, ((3aS,6aR)-5-(5-chloro-2-((1-methyl-1H-pyrazol-4-yl)amino)pyrimidin-4-yl)-3a-methylhexahydropyrrolo[3,4-c]pyrrol-2(1H)-yl)(cyclopropyl)methanone]"
959 nM,6 nM,9 nM,"Cn1cc(Nc2ncc(Cl)c(N3C[C@H]4CN(C(=O)C5CC5)C[C@@]4(C)C3)n2)cn1 [Compound 87, ((3aR,6aS)-5-(5-chloro-2-((1-methyl-1H-pyrazol-4-yl)amino)pyrimidin-4-yl)-3a-methylhexahydropyrrolo[3,4-c]pyrrol-2(1H)-yl)(cyclopropyl)methanone]"
67 nM,0.2 nM,0.5 nM,"Cn1cc(Nc2ncc(Cl)c(N3C[C@@H]4CN(C(=O)CC#N)C[C@]4(C)C3)n2)cn1 [Compound 88, 3-((3aS,6aR)-5-(5-chloro-2-((1-methyl-1H-pyrazol-4-yl)amino)pyrimidin-4-yl)-3a-methylhexahydropyrrolo[3,4-c]pyrrol-2(1H)-yl)-3-oxopropanenitrile]"
729 nM,2.6 nM,4.5 nM,"Cn1cc(Nc2ncc(Cl)c(N3C[C@H]4CN(C(=O)CC#N)C[C@@]4(C)C3)n2)cn1 [Compound 89, 3-((3aR,6aS)-5-(5-chloro-2-((1-methyl-1H-pyrazol-4-yl)amino)pyrimidin-4-yl)-3a-methylhexahydropyrrolo[3,4-c]pyrrol-2(1H)-yl)-3-oxopropanenitrile]"
96 nM,0.1 nM,0.6 nM,Cn1cc(Nc2ncc(Cl)c(N3C[C@@H]4CN(C(=O)[C@@H]5CC5(F)F)C[C@]4(C)C3)n2)cn1 [Compound 90]
388 nM,3.2 nM,2.6 nM,"Cn1cc(Nc2ncc(Cl)c(N3C[C@H]4CN(C(=O)[C@@H]5CC5(F)F)C[C@@]4(C)C3)n2)cn1 [Compound 91, ((3aR,6aS)-5-(5-chloro-2-((1-methyl-1H-pyrazol-4-yl)amino)pyrimidin-4-yl)-3a-methylhexahydropyrrolo[3,4-c]pyrrol-2(1H)-yl)((S)-2,2-difluorocyclopropyl)methanone]"
5850 nM,42 nM,19 nM,"C[C@@]12CN(C(=O)C3CC3)C[C@]1(C)CN(c1nc(Nc3cc[nH]n3)ncc1Cl)C2 [Compound 95, ((3aR,6aS)-5-(2-((1H-pyrazol-3-yl)amino)-5-chloropyrimidin-4-yl)-3a,6a-dimethylhexahydropyrrolo-[3,4-c]pyrrol-2(1H)-yl)(cyclopropyl)methanone]"
516 nM,0.1 nM,0.7 nM,"C[C@]12CN(C(=O)CC#N)C[C@H]1CN(c1nc(Nc3cn[nH]c3)ncc1Cl)C2 [Compound 98, 3-((3aS,6aR)-5-(2-((1H-pyrazol-4-yl)amino)-5-chloropyrimidin-4-yl)-3a-methylhexahydropyrrolo[3,4-c]pyrrol-2(1H)-yl)-3-oxopropanenitrile]"
